Target: Alpha-glucosidase MAL12 (Saccharomyces cerevisiae (strain ATCC 204508 / S288c), UniProt P53341)
Test: α-glucosidase Inhibitory Activity Assay
Details: pH 7; 25 °C
Experimental: α-glucosidase (25 μL, 0.2 U/mL), 25 μL of various concentrations of samples, and 175 μL of 50 mM sodium phosphate buffer (pH 7.0) were mixed at room temperaturefor 10 min. The reaction was started by the addition of 25 μL of 2.5 mM p-nitrophenyl-α-d-glucopyranoside. […] Control sample contained 25 μL DMSO in place of test samples.

Alpha-glucosidase MAL12, sequence (P53341 whole entry): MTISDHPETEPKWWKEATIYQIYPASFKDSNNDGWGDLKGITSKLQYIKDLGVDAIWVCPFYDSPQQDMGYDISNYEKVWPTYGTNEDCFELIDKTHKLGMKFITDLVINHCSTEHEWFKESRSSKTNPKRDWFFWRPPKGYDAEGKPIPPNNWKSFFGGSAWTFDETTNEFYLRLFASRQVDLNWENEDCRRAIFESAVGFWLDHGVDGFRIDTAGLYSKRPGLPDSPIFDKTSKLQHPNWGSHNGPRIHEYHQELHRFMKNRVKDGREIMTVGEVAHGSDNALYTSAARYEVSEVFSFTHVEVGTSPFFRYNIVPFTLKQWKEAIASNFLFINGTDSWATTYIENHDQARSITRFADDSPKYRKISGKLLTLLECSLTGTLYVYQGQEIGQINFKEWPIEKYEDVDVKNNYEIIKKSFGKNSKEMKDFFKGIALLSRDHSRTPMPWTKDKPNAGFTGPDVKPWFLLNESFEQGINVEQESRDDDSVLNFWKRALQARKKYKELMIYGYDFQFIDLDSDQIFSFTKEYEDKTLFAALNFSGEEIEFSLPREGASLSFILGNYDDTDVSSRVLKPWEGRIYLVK

| IC50 | Structure (SMILES) |
| --- | --- |
| > 300 µM | O=C(O)c1ccc(O)cc1 [4-Hydroxybenzoate, III] |
| 24.6 µM | COc1ccc(C(=O)OC[C@H]2OC3c4c(cc(O)c(OC)c4O)C(=O)OC3[C@@H](O)[C@@H]2O)cc1OC (stereo not given in full) [11-O-(3',4'-dimethoxybenzoyl)-bergenin (6)] |
| > 300 µM | COc1cc(OC)cc(C(=O)OC[C@H]2OC3c4c(cc(O)c(OC)c4O)C(=O)OC3[C@@H](O)[C@@H]2O)c1 (stereo not given in full) [11-O-(3',5'-dimethoxybenzoyl)-bergenin (8)] |
| 118 µM | COc1c(O)cc2c(c1O)C1O[C@H](COC(=O)c3ccccc3)[C@@H](O)[C@H](O)C1OC2=O (stereo not given in full) [11-O-benzoylbergenin (2)] |
| 143 µM | COc1c(O)cc2c(c1O)C1O[C@H](COC(=O)c3ccc(O)cc3)[C@@H](O)[C@H](O)C1OC2=O (stereo not given in full) [11-O-p-hydroxybenzoylbergenin (3)] |
| 144 µM | COc1ccc(C(=O)OC[C@H]2OC3c4c(cc(O)c(OC)c4O)C(=O)OC3[C@@H](O)[C@@H]2O)cc1 (stereo not given in full) [11-O-p-methoxybenzoylbergenin (4)] |
| 290 µM | COc1c(O)cc2c(c1O)C1O[C@H](COC(=O)c3ccc(O)c(O)c3)[C@@H](O)[C@H](O)C1OC2=O (stereo not given in full) [11-O-protocatechuoylbergenin (5)] |
| > 300 µM | COc1cc(C(=O)OC[C@H]2OC3c4c(cc(O)c(OC)c4O)C(=O)OC3[C@@H](O)[C@@H]2O)cc(OC)c1O (stereo not given in full) [11-O-syringylbergenin (9)] |
| 187 µM | COc1cc(C(=O)OC[C@H]2OC3c4c(cc(O)c(OC)c4O)C(=O)OC3[C@@H](O)[C@@H]2O)ccc1O (stereo not given in full) [11-O-vanilloylbergenin (7)] |
| > 300 µM | COc1ccc(C(=O)O)cc1 [Anisic acid] |
| > 300 µM | COc1c(O)cc2c(c1O)C1O[C@H](CO)[C@@H](O)[C@H](O)C1OC2=O (stereo not given in full) [Bergenin (1)] |

| Structure (SMILES) | IC50 |
| --- | --- |
| COc1ccc(C(=O)O)cc1OC [3,4-dimethoxybenzoic acid] | > 300 µM |
| COc1cc(C(=O)O)ccc1O [4-hydroxy-3-methoxybenzoic acid] | > 300 µM |
| O=C(O)c1ccc(O)c(O)c1 [Protocatechuic acid (M1)] | > 300 µM |
| O=C(O)c1ccccc1 [SAMPL4, O1] | > 300 µM |
